The source of these data is ChEMBL document CHEMBL4428135, “Varying Chirality Across Nicotinic Acetylcholine Receptor Subtypes: Selective Binding of Quinuclidine Triazole Compounds” (ACS Med Chem Lett, 2016).

Test [1] deals with T1, Neuronal acetylcholine receptor; alpha3/beta4 (Homo sapiens, UniProt P30926+P32297). Description: Displacement of [3H]epibatidine from human alpha3beta4 nAChR transfected in HEK293 cell membranes after 120 mins by liquid scintillation counting. For orientation: Displacement assays read how much labelled ligand stays bound in the presence of the test substance.
T1 sequence (P30926 whole entry): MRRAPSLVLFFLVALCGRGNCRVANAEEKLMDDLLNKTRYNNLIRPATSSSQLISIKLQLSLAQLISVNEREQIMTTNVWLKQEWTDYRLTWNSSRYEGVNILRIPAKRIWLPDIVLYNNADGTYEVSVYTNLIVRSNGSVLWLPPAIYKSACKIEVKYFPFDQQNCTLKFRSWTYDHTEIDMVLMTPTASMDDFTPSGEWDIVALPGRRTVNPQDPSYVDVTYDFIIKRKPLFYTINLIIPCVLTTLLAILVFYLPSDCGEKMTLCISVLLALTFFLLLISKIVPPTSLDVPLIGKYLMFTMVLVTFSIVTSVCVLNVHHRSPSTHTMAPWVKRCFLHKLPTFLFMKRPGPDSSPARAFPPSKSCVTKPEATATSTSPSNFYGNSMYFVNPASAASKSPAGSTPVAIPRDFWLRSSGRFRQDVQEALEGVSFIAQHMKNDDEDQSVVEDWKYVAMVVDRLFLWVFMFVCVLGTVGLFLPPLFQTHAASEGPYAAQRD
T1 sequence (P32297 whole entry): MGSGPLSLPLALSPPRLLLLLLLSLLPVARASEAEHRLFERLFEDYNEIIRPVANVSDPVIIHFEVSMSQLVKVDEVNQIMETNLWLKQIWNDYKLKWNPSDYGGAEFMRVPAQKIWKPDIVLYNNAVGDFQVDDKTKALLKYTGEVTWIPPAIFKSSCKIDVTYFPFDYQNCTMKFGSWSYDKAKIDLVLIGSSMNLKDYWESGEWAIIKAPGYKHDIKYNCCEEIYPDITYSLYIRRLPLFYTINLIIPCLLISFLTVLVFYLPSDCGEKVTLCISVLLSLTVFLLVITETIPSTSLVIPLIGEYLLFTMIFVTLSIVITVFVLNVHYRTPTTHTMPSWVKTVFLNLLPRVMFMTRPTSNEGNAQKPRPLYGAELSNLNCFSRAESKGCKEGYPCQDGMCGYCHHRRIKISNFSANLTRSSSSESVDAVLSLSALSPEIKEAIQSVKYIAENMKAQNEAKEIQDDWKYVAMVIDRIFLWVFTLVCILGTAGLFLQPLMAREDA
The species entered for test [2] is Homo sapiens. Description: Selectivity index, reciprocal of ratio of Ki for human alpha3beta4 nAChR transfected in HEK293 cells to Ki for human alpha4beta2 nAChR transfected in HEK293 cells. It is filed as cell-based.
The target in test [3] is T2, Neuronal acetylcholine receptor subunit alpha-7 (Homo sapiens, UniProt P36544). Put plainly: Displacement of [3H]MLA from human alpha7 nAChR transfected in human SH-SY5Y cell membranes after 120 mins by liquid scintillation counting.
T2 sequence (P36544 whole entry): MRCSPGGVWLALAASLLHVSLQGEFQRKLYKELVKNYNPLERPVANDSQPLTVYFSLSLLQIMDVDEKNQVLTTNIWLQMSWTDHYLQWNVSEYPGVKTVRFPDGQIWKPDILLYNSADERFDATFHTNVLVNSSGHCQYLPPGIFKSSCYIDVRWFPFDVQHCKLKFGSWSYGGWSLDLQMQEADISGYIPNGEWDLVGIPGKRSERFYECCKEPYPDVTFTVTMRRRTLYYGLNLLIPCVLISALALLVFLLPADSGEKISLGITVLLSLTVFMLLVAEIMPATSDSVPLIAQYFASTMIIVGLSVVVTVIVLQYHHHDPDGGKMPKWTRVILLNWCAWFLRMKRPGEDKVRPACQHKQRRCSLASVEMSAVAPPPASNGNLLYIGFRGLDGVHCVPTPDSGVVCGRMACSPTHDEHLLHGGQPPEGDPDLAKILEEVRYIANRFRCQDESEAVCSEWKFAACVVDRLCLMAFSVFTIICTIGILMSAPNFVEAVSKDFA
The target in test [4] is T3, Neuronal acetylcholine receptor; alpha4/beta2 (Homo sapiens, UniProt P17787+P43681). Description: Displacement of [3H]epibatidine from human alpha4beta2 nAChR transfected in HEK293 cell membranes after 120 mins by liquid scintillation counting.
T3 sequence (P17787 whole entry): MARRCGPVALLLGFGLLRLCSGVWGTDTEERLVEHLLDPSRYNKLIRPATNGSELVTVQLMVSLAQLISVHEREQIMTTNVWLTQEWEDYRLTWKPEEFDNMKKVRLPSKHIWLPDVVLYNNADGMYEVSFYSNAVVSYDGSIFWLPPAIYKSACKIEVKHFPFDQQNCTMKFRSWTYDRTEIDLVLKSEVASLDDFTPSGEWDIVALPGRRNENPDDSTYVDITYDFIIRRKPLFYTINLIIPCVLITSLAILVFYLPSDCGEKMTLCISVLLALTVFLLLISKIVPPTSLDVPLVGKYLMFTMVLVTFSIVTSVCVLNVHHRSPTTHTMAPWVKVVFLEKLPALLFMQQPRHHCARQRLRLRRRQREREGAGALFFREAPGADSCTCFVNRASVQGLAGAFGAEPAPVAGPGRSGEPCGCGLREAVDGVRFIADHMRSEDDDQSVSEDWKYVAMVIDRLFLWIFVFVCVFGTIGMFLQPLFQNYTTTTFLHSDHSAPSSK
T3 sequence (P43681 whole entry): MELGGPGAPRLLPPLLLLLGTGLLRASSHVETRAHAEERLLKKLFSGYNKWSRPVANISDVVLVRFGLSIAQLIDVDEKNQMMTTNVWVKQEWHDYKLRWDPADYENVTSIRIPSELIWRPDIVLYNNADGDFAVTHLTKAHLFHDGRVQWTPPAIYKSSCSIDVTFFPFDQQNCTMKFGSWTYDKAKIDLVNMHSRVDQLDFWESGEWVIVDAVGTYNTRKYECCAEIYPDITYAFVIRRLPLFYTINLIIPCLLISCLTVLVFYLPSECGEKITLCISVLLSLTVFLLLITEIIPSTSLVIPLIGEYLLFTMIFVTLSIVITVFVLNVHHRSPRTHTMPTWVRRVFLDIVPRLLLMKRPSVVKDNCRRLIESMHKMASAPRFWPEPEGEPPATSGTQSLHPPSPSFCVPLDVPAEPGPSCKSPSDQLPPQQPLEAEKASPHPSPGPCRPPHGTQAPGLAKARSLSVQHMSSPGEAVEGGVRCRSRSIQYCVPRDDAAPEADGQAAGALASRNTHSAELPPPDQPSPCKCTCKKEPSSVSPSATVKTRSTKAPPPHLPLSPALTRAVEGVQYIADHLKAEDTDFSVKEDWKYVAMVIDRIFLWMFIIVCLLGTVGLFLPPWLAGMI
The species entered for test [5] is Homo sapiens. Description: Selectivity index, reciprocal of ratio of Ki for alpha7 nAChR transfected in human SH-SY5Y cells to KI for human alpha4beta2 nAChR transfected in HEK293 cells. It is filed as cell-based.
In test [6] the target is Neuronal acetylcholine receptor; alpha4/beta2 (Rattus norvegicus, UniProt P09483+P12390). Description: Displacement of [3H]cytisine from alpha4beta2 nAChR in Sprague-Dawley rat brain membranes after 75 mins by scintillation counting. It is filed as cell membranes.
Chain of Neuronal acetylcholine receptor; alpha4/beta2 (Rattus norvegicus, UniProt P09483+P12390) (P09483 whole entry): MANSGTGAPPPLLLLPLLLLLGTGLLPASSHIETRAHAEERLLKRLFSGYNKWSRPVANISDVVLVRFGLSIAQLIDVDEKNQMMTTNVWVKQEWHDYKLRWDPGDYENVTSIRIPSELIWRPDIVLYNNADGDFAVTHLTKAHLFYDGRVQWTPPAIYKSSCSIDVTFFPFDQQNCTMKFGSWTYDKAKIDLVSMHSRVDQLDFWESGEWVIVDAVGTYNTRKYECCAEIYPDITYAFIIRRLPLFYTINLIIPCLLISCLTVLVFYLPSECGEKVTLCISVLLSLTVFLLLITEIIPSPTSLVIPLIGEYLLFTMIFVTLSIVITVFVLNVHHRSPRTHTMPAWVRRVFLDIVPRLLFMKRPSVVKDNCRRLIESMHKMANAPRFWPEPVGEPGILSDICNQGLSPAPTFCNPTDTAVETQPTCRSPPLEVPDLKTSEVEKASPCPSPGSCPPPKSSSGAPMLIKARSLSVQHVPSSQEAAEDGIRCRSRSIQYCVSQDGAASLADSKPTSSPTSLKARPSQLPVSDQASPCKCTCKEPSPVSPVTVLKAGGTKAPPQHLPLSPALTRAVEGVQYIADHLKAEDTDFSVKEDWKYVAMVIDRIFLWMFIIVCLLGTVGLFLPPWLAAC
Chain of Neuronal acetylcholine receptor; alpha4/beta2 (Rattus norvegicus, UniProt P09483+P12390) (P12390 whole entry): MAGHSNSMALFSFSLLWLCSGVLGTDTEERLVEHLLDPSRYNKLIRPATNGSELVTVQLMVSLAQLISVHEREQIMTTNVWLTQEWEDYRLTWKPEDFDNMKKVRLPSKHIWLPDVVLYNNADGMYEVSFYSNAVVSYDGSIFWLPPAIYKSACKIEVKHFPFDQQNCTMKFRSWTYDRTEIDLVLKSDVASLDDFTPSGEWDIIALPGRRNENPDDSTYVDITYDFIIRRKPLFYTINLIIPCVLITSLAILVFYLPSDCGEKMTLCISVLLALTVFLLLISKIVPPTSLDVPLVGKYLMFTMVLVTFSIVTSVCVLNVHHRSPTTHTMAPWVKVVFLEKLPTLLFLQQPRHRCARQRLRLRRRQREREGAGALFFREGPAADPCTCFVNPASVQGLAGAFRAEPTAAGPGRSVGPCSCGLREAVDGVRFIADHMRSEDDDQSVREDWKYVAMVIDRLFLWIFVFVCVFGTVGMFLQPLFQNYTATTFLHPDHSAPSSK
Test [7] deals with T2, Neuronal acetylcholine receptor subunit alpha-7. Put plainly: Displacement of [3H]A-585539 from alpha7 nAChR in human cerebral cortex membranes after 75 mins by scintillation counting. It is filed as cell membranes.
The species named for test [8] is Homo sapiens. Description: Selectivity index, reciprocal of ratio of Ki for human alpha7 nAChR transfected in human SH-SY5Y cells to Ki for human alpha3beta4 nAChR transfected in HEK293 cells. It is filed as cell-based.
Test [9] deals with Acetylcholine receptor subunit alpha (Homo sapiens) (UniProt P02708). Put plainly: Displacement of [125I]alpha-bungarotoxin from human N-muscle type nAChR alpha1 expressed in human RD cells at 1 uM. It is filed as cell-based.
Chain of Acetylcholine receptor subunit alpha (Homo sapiens) (P02708 whole entry): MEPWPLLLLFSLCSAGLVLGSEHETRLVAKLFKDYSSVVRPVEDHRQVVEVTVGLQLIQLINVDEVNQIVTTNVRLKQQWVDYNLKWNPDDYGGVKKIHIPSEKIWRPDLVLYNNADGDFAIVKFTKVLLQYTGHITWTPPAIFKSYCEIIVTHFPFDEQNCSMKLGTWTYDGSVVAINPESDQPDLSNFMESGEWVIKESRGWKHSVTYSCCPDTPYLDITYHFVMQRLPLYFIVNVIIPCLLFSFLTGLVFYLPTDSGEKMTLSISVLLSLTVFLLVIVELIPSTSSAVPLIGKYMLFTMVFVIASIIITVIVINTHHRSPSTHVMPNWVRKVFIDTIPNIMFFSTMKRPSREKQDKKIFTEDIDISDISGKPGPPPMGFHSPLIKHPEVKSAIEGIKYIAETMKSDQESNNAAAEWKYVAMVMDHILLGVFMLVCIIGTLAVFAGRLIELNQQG
Test [10] has as its target Serotonin 3 (5-HT3) receptor (Homo sapiens) (UniProt P46098+A5X5Y0+O95264+Q70Z44+Q8WXA8). Description: Displacement of [3H]BRL-43694 from human recombinant 5-HT3 receptor expressed in CHO cells at 100 nM. It is filed as cell-based.
In test [11] the target is T2, Neuronal acetylcholine receptor subunit alpha-7. Description: Agonist activity at human alpha7 nAChR expressed in human SH-SY5Y cells assessed as increase in intracellular calcium levels at 10 uM. It is filed as cell-based. On the technique in general: A change in cytosolic calcium serves as a functional read-out for many receptors and channels.
In test [12] the target is T1, Neuronal acetylcholine receptor; alpha3/beta4. Put plainly: Antagonist activity at human alpha3beta4 nAChR expressed in HEK293 cells assessed as rediution in epibatidine-induced intracellular calcium levels at 10 uM. It is filed as cell-based.
In test [13] the target is T3, Neuronal acetylcholine receptor; alpha4/beta2. Description: Displacement of [3H] epibatidine from alpha4beta2 nAChR (unknown origin) expressed in HEK293 cells. It is filed as cell-based.
The target of test [14] is T2, Neuronal acetylcholine receptor subunit alpha-7. Put plainly: Displacement of [3H] epibatidine from alpha7 nAChR (unknown origin) expressed in HEK293 cells. It is filed as cell-based.
The target of test [15] is T1, Neuronal acetylcholine receptor; alpha3/beta4. Put plainly: Displacement of [3H] epibatidine from alpha3beta4 nAChR (unknown origin) expressed in HEK293 cells. It is filed as cell-based.
In test [16] the target is T2, Neuronal acetylcholine receptor subunit alpha-7. Put plainly: Binding affinity to alpha7 nAChR (unknown origin).
For test [17], the target named is T3, Neuronal acetylcholine receptor; alpha4/beta2. Put plainly: Binding affinity to alpha4beta2 nAChR (unknown origin). It is filed as protein-complex assay.
For test [18] the target is unchanged. Put plainly: Displacement of [3H]-(+/-)-epibatidine from human recombinant alpha4beta2 nAChR expressed in HEKtsA201 cells after 1 hr by CNiFERs binding assay. It is filed as cell-based.
Test [19] addresses T2, Neuronal acetylcholine receptor subunit alpha-7. Put plainly: Displacement of [3H]MLA from human recombinant alpha7 nAChR expressed in HEKtsA201 cells after 1 hr by CNiFERs binding assay. It is filed as cell-based.
Test [20] has as its target T1, Neuronal acetylcholine receptor; alpha3/beta4. Put plainly: Agonist activity at human alpha3beta4 nAChR expressed in HEK293 cells assessed as increase in intracellular calcium levels at 10 uM. It is filed as cell-based.
For test [21], the target named is Neuronal acetylcholine receptor subunit alpha-7 (Rattus norvegicus, UniProt Q05941). Put plainly: Displacement of [3H]MLA from alpha7 nAChR in rat brain membranes after 2 hrs. It is filed as cell membranes.
Chain of Neuronal acetylcholine receptor subunit alpha-7 (Rattus norvegicus, UniProt Q05941) (Q05941 whole entry): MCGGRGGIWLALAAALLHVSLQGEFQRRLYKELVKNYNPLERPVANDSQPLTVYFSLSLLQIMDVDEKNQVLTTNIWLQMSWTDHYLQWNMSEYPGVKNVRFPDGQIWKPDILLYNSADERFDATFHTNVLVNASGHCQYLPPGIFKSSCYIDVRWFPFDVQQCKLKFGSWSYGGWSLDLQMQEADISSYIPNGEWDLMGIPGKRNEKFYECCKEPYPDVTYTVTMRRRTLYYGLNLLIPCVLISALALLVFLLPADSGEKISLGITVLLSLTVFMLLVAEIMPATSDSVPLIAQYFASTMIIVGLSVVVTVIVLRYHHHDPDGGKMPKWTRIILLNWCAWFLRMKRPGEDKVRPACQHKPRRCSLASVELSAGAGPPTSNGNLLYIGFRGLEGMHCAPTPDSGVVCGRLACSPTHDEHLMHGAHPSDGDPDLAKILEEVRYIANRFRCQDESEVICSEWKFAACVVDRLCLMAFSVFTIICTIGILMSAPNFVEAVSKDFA

SMILES strings stand for the structures. pKi: −log10 of the molar value. Activity calls are given as the source filed them. No cut-off for these calls is given here.

As usually defined, the pKi is −log10 of the Ki, conventionally taken in molar units. For `FCCCOc1cccc(-c2cn(C3CN4CCC3CC4)nn2)c1` (racemic), the pKi in [1] was 7.35; in test [3], 7.13; in [4] it was 5.41. Moreover, the Ratio in the test listed under Homo sapiens [2] was found to be 88; in the test listed under Homo sapiens [5], 52.

Regarding `FCCOc1cccc(-c2cn(C3CN4CCC3CC4)nn2)c1` (racemic), the pKi is 7.68 in test [1], 7.01 in test [3] and 5.71 in [4]. For the same compound, the Ratio in the test listed under Homo sapiens [2] is 94; in the test listed under Homo sapiens [5], 20.

`c1cc2cc(-c3ccc(O[C@H]4CN5CCC4CC5)nn3)ccc2[nH]1` [ABT-107]: the pKi in test [6] was 5.40; in [7], 9.66.

`Fc1ccc(-c2cn(C3CN4CCC3CC4)nn2)cc1` (racemic): the pKi in test [1] is 8.07; in [3] it was 7.14; in [4] it was 6.35. Moreover, the Ratio in the test listed under Homo sapiens [2] was 53; in the test filed under Homo sapiens [5] it was 6.2.

Turning to `FCCCOc1cccc(-c2cn([C@H]3CN4CCC3CC4)nn2)c1`, the Ratio was 26 in the test filed under Homo sapiens [8], 5.5 in the test listed under Homo sapiens [2] and 145 in the test filed under Homo sapiens [5]. In addition, the negative-log Ki (pKi) was 5.79 in [1], 7.21 in test [3] and 5.05 in test [4].

For the compound `FCCCOc1cccc(-c2cn([C@@H]3CN4CCC3CC4)nn2)c1`, the negative-log Ki (pKi) in test [1] was 7.71; in test [3] it was 7.01; in [4], 5.70. Further, the Ratio in the test listed under Homo sapiens [2] stood at 102; in the test filed under Homo sapiens [5], 20.

Consider `Oc1ccc(-c2cn([C@@H]3CN4CCC3CC4)nn2)cc1`, for which the values for the pKi in test [1], in [3] and in test [4] were 8.61, 7.53 and 6.34, respectively. Besides, the Ratio in the test listed under Homo sapiens [2] was 186; in the test listed under Homo sapiens [5], 16.

By inhibition is commonly meant the share of the control response that was lost under treatment. Consider `c1ccc(COc2cccc(-c3cn([C@@H]4CN5CCC4CC5)nn3)c2)cc1`, for which the negative-log Ki (pKi) was 8.18 in test [1], 6.55 in [3] and 6.38 in test [4]. Besides, the inhibition in [9] is 2 to 12%. Also, the Ratio was 62 in the test listed under Homo sapiens [2] and 1.5 in the test listed under Homo sapiens [5]. The inhibition result in test [10] was “inactive”.

For `FCCOc1cccc(-c2cn([C@@H]3CN4CCC3CC4)nn2)c1`, the pKi in test [1] was 7.93; in test [3] it was 7.13; in [4] it was 5.90. The figures for the Ratio in the test listed under Homo sapiens [2] and in the test filed under Homo sapiens [5] were 107 and 17, respectively.

Take `FCCOc1cccc(-c2cn([C@H]3CN4CCC3CC4)nn2)c1`: the Ratio in the test listed under Homo sapiens [8] turned out to be 14; in the test listed under Homo sapiens [2] it was 13; in the test filed under Homo sapiens [5], 182. Further, the pKi in [1] was 6.25; in [3], 7.41; in test [4], 5.15.

`Fc1cccc(-c2cn([C@@H]3CN4CCC3CC4)nn2)c1`: the result in test [11] was Active. For the same compound, the pKi in test [1] is 8.65; in test [3], 6.18; in test [4] it was 6.28. The same compound yielded an inhibition in test [9] of 2 to 12%. In addition, the Ratio in the test filed under Homo sapiens [2] was found to be 231. Further, the inhibition result in test [12] was “Active”. In addition, the inhibition entry in test [10] is “inactive”.

Regarding `c1ccc(COc2cccc(-c3cn(C4CN5CCC4CC5)nn3)c2)cc1` (racemic), the pKi in test [1] is 8.12; in test [3] it was 7.04; in test [4], 6.18. Moreover, the Ratio in the test listed under Homo sapiens [2] was 88; in the test filed under Homo sapiens [5], 7.3.

In the case of `Fc1ccc(COc2cccc(-c3cn(C4CN5CCC4CC5)nn3)c2)cc1` (racemic), the pKi in [1] was 7.86; in test [3], 6.90; in [4], 5.99. For the same compound, the Ratio turned out to be 73 in the test filed under Homo sapiens [2] and 8 in the test listed under Homo sapiens [5].

For `FC(F)(F)c1ccc2c(c1)[C@@H]1CNC[C@H]2C1`, the pKi in test [13] is 7.68; in test [14], less than 6.52; in [15], 7.68.

Take `CN1C2CCCC1CC(Nc1ccccc1Br)C2` (configuration not stated): the pKi in test [16] was 6.66; in [17] it was 6.32.

Turning to `Fc1ccc(-c2cn([C@H]3CN4CCC3CC4)nn2)cc1`, in test [11], the outcome was Active. For the same compound, the Ratio was 14 in the test listed under Homo sapiens [8], 10 in the test listed under Homo sapiens [2] and 143 in the test filed under Homo sapiens [5]. For the same compound, the pKi was 6.00 in [1], 7.14 in [3] and 4.98 in test [4]. In addition, the inhibition entry in [12] is “Active”.

Regarding `Oc1ccc(-c2cn(C3CN4CCC3CC4)nn2)cc1` (racemic), the pKi in test [18] is less than 5.00; in test [1], 8.46; in test [3] it was 8.02; in test [4] it was 6.20; in test [19], 7.09. For the same compound, the values for the Ratio in the test listed under Homo sapiens [2] and in the test listed under Homo sapiens [5] were 182 and 65, respectively.

Regarding `Fc1ccc(-c2cn([C@@H]3CN4CCC3CC4)nn2)cc1`, the outcome in test [20] and in [11] was Active. In addition, the negative-log Ki (pKi) in test [1] is 8.51; in test [3], 6.76; in [4], 6.29. In test [9], this compound showed an inhibition of 2 to 12%. For the same compound, the Ratio was determined as 167 in the test listed under Homo sapiens [2] and 3 in the test filed under Homo sapiens [5]. The inhibition entry in test [10] was “inactive”.

Regarding `Fc1cccc(-c2cn([C@H]3CN4CCC3CC4)nn2)c1`, the outcome in [20] and in [11] was Active. Besides, the Ratio amounted to 3.1 in the test filed under Homo sapiens [8], 14 in the test listed under Homo sapiens [2] and 44 in the test filed under Homo sapiens [5]. For the same compound, the figures for the pKi in [1], in test [3] and in [4] were 6.44, 6.93 and 5.28, respectively.

For `Oc1ccc(-c2cn([C@H]3CN4CCC3CC4)nn2)cc1`, the figures for the Ratio in the test filed under Homo sapiens [8], in the test filed under Homo sapiens [2] and in the test filed under Homo sapiens [5] were 12.7, 54 and 678, respectively. Further, the negative-log Ki (pKi) is 6.86 in test [1], 7.96 in test [3] and 5.13 in [4].

For `O=C(N[C@H]1CN2CCC1CC2)c1c[nH]c2ccccc12`, the negative-log Ki (pKi) in test [21] was 8.22.

`Fc1ccc(COc2cccc(-c3cn([C@@H]4CN5CCC4CC5)nn3)c2)cc1`: the pKi is 8.14 in test [1], 6.83 in test [3] and 6.27 in test [4]. Moreover, the inhibition in [9] lay within 2 to 12%. The results for the Ratio in the test filed under Homo sapiens [2] and in the test filed under Homo sapiens [5] were 75 and 3.6, respectively. For the same compound, the inhibition entry in [10] is “Active”.

Turning to `Fc1ccc(COc2cccc(-c3cn([C@H]4CN5CCC4CC5)nn3)c2)cc1`, the Ratio in the test listed under Homo sapiens [8] came to 33; in the test filed under Homo sapiens [2], 5.9; in the test listed under Homo sapiens [5], 193. The pKi was 5.96 in test [1], 7.48 in [3] and 5.19 in test [4].

As to `Fc1cccc(-c2cn(C3CN4CCC3CC4)nn2)c1` (racemic), the pKi was 8.28 in test [1], 6.88 in test [3] and 6.13 in [4]. The Ratio worked out at 143 in the test listed under Homo sapiens [2] and 5.6 in the test listed under Homo sapiens [5].

For the compound `c1ccc(COc2cccc(-c3cn([C@H]4CN5CCC4CC5)nn3)c2)cc1`, the Ratio in the test listed under Homo sapiens [8] was found to be 28; in the test listed under Homo sapiens [2] it was 8; in the test filed under Homo sapiens [5], 225. The results for the pKi in test [1], in test [3] and in [4] were 6.20, 7.65 and 5.30, respectively.
